For 37 molecules, GI50 and TGI results are on record in PubChem BioAssay (NCI).

Where “and” joins values, the source holds several entries; their conditions need not be identical. Equal entries are not always repeated.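 Values below derive from 48-hour exposures of cells grown in 96-well plates, with endpoints linearly interpolated between the two concentrations bracketing the appropriate inhibition level. GI50 marks 50% less growth. TGI: total growth inhibition.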

In this assay the test system is MDA-MB-468 breast. The experiment in a line: NCI tumour cell line growth inhibition, 48 h.
For the molecule `NC(=O)OCCn1cc(-c2nc(-c3c[nH]c4ncccc34)cs2)c2ccccc21`, the GI50 was 1.33 µM and the TGI was found to be 3.8 µM.

With `COc1ccc(-c2ccc(-c3ccc(C(=N)N)s3)s2)cc1`, the GI50 is 0.187 µM and the TGI worked out at 0.379 µM.

Consider `O=C(NNc1nc2cc(F)c(F)cc2n2c(CN3CC4CNCC4C3)ccc12)c1cnccn1` (centres undefined), for which the GI50 is 1.34 µM and the TGI came to 6.54 µM.

Turning to `COc1cc(OC)c(/C=C/c2c3ccccc3cc[n+]2C)c(OC)c1`, the GI50 is 0.266 µM and the TGI is 2.66 µM.

For the molecule `CCOC(=O)/C=C(/C)Sc1cc(O)c2ccccc2c1O`, the GI50 is 3.55 µM and the TGI turned out to be 12.1 µM.

As for `C1=C\COCc2cc(ccc2OCCN2CCCC2)Nc2nccc(n2)-c2cccc(c2)COC/1`, the GI50 is 1.32 µM and the TGI amounted to 3.79 µM.

Turning to `O=S(=O)(Nc1ccc(F)cc1F)c1ccc(-c2cnc(C3CC3)o2)cc1`, the GI50 was 0.39 µM and the TGI amounted to 7.86 µM.

For the molecule `C[C@H]1[C@H](C)CC[C@]2(C(=O)Nc3ccc4ncccc4c3)CC[C@]3(C)C(=CC[C@@H]4[C@@]5(C)CCCNC(C)(C)[C@@H]5CC[C@]43C)[C@H]12`, the GI50 was 1.74 µM and the TGI worked out at 3.45 µM.

Consider `O=C(c1ccc(/C=C/c2n[nH]c3ccccc23)cc1)N1CCNCC1`, for which the GI50 was 2.45 µM and 9.15 µM; the TGI was > 10 µM and 22.5 µM.

For the molecule `Cc1[nH]c(/C=C2\C(=O)Nc3ccccc32)c(C)c1CCC(=O)O`, the GI50 is 25.6 µM and the TGI was determined as 70 µM.

Consider `Cn1cc(C2=C(c3cccc(Br)c3)C(=O)NC2=O)c2ccccc21`, for which the GI50 is 6.7 µM and the TGI is > 25 µM.

`O=C(Nc1ccc(-n2ccc3c(NC(=O)c4ccccc4)nccc32)cc1)Nc1ccc(Cl)c(Cl)c1`: the GI50 is 1.41 µM and the TGI stood at 2.96 µM.

For the molecule `Cc1cc(C)c(NC(=O)c2sc3nc4c(cc3c2N)CN(Cc2ccccc2)CC4)c(C)c1`, the GI50 is 1.78 µM and the TGI was 88.7 µM.

In the case of `COc1ccc(-n2c(C)cc(-c3ccccc3)c2C)cc1`, the GI50 was 1.31 µM and the TGI is 3.47 µM.

Regarding `CN(CCO)c1ccc(N2Cc3ccccc3OC3=C2C(=O)c2c(O)ccc(O)c2C3=O)cn1`, the GI50 is 0.257 µM and the TGI amounted to 0.659 µM.

Take `COCC1(CO)C(=O)C2CCN1CC2` (centres undefined): the GI50 was 18.4 µM and the TGI is 40.3 µM.

On to `O=C1NC(=O)/C(=C\c2ccccc2)C2=C1CCCC2`, for which the GI50 was 10.1 µM and the TGI worked out at 30.2 µM.

`O=C(CSc1nnc(-c2ccc(Cl)cc2)n1-c1ccccc1)Nc1cccc(F)c1`: the GI50 was 4.31 µM and the TGI was > 100 µM.

In the case of `O=C(CSC1CCc2ccccc21)N/N=C/c1ccccc1O` (centres undefined), the GI50 was 2.73 µM and the TGI was found to be 13.9 µM.

`OCCCNc1nccc(-c2c(-c3ccc(F)cc3)nn3cc(C(F)(F)F)ccc23)n1`: the GI50 is 6.72 µM and the TGI is > 20.3 µM.

Turning to `CC(=O)Oc1ccccc1C(=O)Nc1ncc([N+](=O)[O-])s1`, the GI50 is 1.93 µM and the TGI worked out at 7.64 µM.

`N=C(N)c1ccc2nc(-c3cc(CC(=O)N[C@@H](CC(=O)O)C(=O)O)cc(-c4cc(S(N)(=O)=O)ccc4O)c3O)[nH]c2c1`: the GI50 is > 100 µM and the TGI is > 100 µM.

On to `Cc1cc(C)c(/C=C2\C(=O)Nc3ccc(NC(=O)CCCCCCC(=O)NO)cc32)[nH]1`, for which the GI50 was 0.367 µM and the TGI was found to be 22.6 µM.

`CCCCCOc1ccc(/C=N/Nc2cc(C)nc3ccc(Br)cc23)cc1`: the GI50 was 1.83 µM and the TGI stood at 3.57 µM.

On to `O=C1NC(=O)C(c2cccc([N+](=O)[O-])c2)=C1Nc1cc(Cl)c(O)c(Cl)c1`, for which the GI50 is 12.3 µM and the TGI was > 25 µM.

Turning to `O=C1NC(=NCCc2cccc(Cl)c2)S/C1=C\c1ccc2ncccc2c1`, the GI50 is > 25 µM and the TGI was > 25 µM.

Consider `COc1cc(/C=C/C(=O)c2cc(OC)c(OC)c(OC)c2)ccc1OCc1ccc(F)cc1`, for which the GI50 was 2.84 µM and the TGI is > 100 µM.

In the case of `CCCOc1ccc2sc(NC(=O)OC)nc2c1`, the GI50 is 1.19 µM and the TGI is > 100 µM.

As for `CCOC(=O)c1c(NC(=O)c2cccc(C(F)(F)F)c2)sc2c(CN(C)C)c(O)ccc12`, the GI50 is 1.72 µM and the TGI came to 3.8 µM.

As for `C#COc1cccc(Nc2c(C#N)cnc3ncc(NC(=O)CCl)cc23)c1`, the GI50 was 12.7 µM and the TGI was found to be 60.3 µM.

In the case of `COC(=O)[C@@H](C)C[C@H](Cc1ccccc1)NC(=O)c1csc([C@@H](C[C@H](C(C)C)N(C)C(=O)[C@@H](NC(=O)[C@H]2CCCCN2C)C2CCCCC2)OC(C)=O)n1`, the GI50 is 0.000311 µM and 0.0025 µM; the TGI is > 25 µM.

In the case of `CCN(Cc1ccccc1C)c1ccc(CO)c(Cl)c1`, the GI50 is 0.0388 µM and the TGI worked out at 0.288 µM.

As to `CCn1c(=O)c2c(=O)c3c4c(oc3oc2c2ccccc21)C(=O)c1ccccc1C4=O`, the GI50 is 0.199 µM and the TGI is 0.701 µM.

Regarding `CCN1C(=O)N(CC)C2C1NN=c1s/c(=C3\C(=O)N(CC(C)(C)C)c4ccccc43)c(=O)n12` (centres undefined), the GI50 was 3.85 µM and the TGI worked out at 18.8 µM.

Take `O[C@H](c1cc(C(F)(F)F)nc2c(C(F)(F)F)cccc12)[C@@H]1CCCCN1`: the GI50 was 1.72 µM and the TGI stood at 4.19 µM.

For `C=C1C(=O)O[C@H]2[C@H]1CC/C(COC(=O)/C=C\C(=O)NCc1ccc(Cn3c(=O)sn(CCCC)c3=O)cc1)=C\CC[C@@]1(C)O[C@@H]21`, the GI50 was 0.348 µM and the TGI came out at 1.39 µM.

As for `COc1ccc(O)c(C(=O)c2ccc(C(=O)N[C@H]3CCCNC[C@@H]3NC(=O)c3ccncc3)cc2)c1F`, the GI50 was 0.552 µM and the TGI is > 25 µM.
